Patent US8835125B2, “Methods and compositions for selective labeling of different biotinylated targets within multicolor or multilabel assays” (Affymetrix, Inc., priority 2011, dated 2014)

Key:
streptavidin = streptavidin (Streptomyces avidinii, UniProt P22629); details: association constant; cited from earlier work
SAPE [1] = target: T1, SAPE (Streptomyces avidinii, UniProt P22629); assay: stability of DMT protected biotin against SAPE staining after 3 hour ligation (FIG. 13); details: array probes after 3 hours ligation reaction, no acid treatment
T1 sequence (P22629 25-183): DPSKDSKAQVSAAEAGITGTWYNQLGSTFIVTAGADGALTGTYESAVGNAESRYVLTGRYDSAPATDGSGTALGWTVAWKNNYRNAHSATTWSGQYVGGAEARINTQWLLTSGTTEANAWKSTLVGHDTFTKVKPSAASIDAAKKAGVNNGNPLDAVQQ

SAPE [2] = target: T1, SAPE; assay: displacement of SAPE from desthiobiotin by biotin solution and re-staining (FIG. 15); format: binding; details: 1 mM biotin solution, then restaining with SAPE
Experimental: The next step was to displace the streptavidin-phycoerythrin conjugate bound to the desthiobiotin of the ligated A/T probes. This was done by washing the array with solution biotin (1 mM) in NaCl (150 mM) for 4 hours at room temperature. The displaced streptavidin-phycoerythrin conjugate previous bound to the desthiobiotinylated probes was then removed.
FIGS. 15(A)-15(C) contain images of sub-regions with sets of probes to test the effectiveness of binding and displacement of desthiobiotin with biotin. Specifically, the probe sets within the images are ligated with desthiobiotin labeled probes. […] Washing was also performed to remove the displaced biotin-SAPE conjugate. FIG. 15(C) contains an image after subsequent restraining with SAPE.

streptavidin, sequence (P22629 25-183, species assumed): as the sequence (P22629 25-183) above

## O=C(O)CCCC[C@@H]1SC[C@@H]2NC(=O)N[C@@H]21 [biotin]
streptavidin
  binding affinity with streptavidin: 1e+15 M⁻¹
SAPE [1]
  intensity after SAPE staining: extremely strong

## C[C@@H]1NC(=O)N[C@@H]1CCCCCC(=O)O [desthiobiotin]
SAPE [2]
  displacement of SAPE stain and re-staining: effectively displace and remove a labeling stain from desthiobiotin
streptavidin
  binding affinity with streptavidin: 5e+13 M⁻¹
